Here are results for nine molecules from patent publication US9242940B2, “N-substituted bis(fluoroalkyl)-1,4-benzodiazepinone compounds” (BRISTOL-MYERS SQUIBB COMPANY, priority 2012, dated 2016).

A short description of this data set: Metabolic Stability Half-Life Panel, human liver microsomes. Conditions: pH 7.4, human liver microsomes, 0.5 μM compound, NADPH, 45-minute time course, read-out: HLM (t1/2, min.). In kind it is in vitro ADME. The source says:
Metabolic Stability Half-Life Panel

On to `NC(=O)[C@@H](CCC(F)(F)F)[C@@H](CCC(F)(F)F)C(=O)N[C@H]1N=C(c2ccccc2)c2ccccc2N(c2ccc(Cl)cn2)C1=O` [Example 2, (2R,3S)-N-((3S)-1-(5-Chloro-2-pyridinyl)-2-oxo-5-phenyl-2,3-dihydro-1H-1,4-benzodiazepin-3-yl)-2,3-bis(3,3,3-trifluoropropyl)succinamide], for which the half-life at 0.5 μM is ≥ 67 min. For `CC(F)(F)C[C@H](C(N)=O)[C@@H](CCC(F)(F)F)C(=O)N[C@H]1N=C(c2ccccc2)c2ccccc2N(CC2CC2)C1=O` [Example 8, (2R,3S)-N-((3S)-1-(Cyclopropylmethyl)-2-oxo-5-phenyl-2,3-dihydro-1H-1,4-benzodiazepin-3-yl)-3-(2,2-difluoropropyl)-2-(3,3,3-trifluoropropyl)succinamide] the value was ≥ 67 min; for `COc1ccc(C2=N[C@H](NC(=O)[C@H](CCC(F)(F)F)[C@H](CCC(F)(F)F)C(N)=O)C(=O)N(CC3CC3)c3ccccc32)cc1` [Example 6, (2R,3S)-N-((3S)-1-(Cyclopropylmethyl)-5-(4-methoxyphenyl)-2-oxo-2,3-dihydro-1H-1,4-benzodiazepin-3-yl)-2,3-bis(3,3,3-trifluoropropyl)succinamide], ≥ 67 min; for `NC(=O)[C@@H](CCC(F)(F)F)[C@@H](CCC(F)(F)F)C(=O)N[C@H]1N=C(c2ccccc2)c2cc3c(cc2N(c2ccccn2)C1=O)OCO3` [Example 3, (2R,3S)-N-((7S)-6-Oxo-9-phenyl-5-(2-pyridinyl)-6,7-dihydro-5H-[1,3]dioxolo[4,5-h][1,4]benzodiazepin-7-yl)-2,3-bis(3,3,3-trifluoropropyl)succinamide], ≥ 67 min.

For `CC(F)(F)C[C@@H](C(=O)N[C@H]1N=C(c2ccccc2)c2ccccc2N(CC2CC2)C1=O)[C@H](CCC(F)(F)F)C(N)=O` [Example 9, (2R,3S)-N-((3S)-1-(Cyclopropylmethyl)-2-oxo-5-phenyl-2,3-dihydro-1H-1,4-benzodiazepin-3-yl)-2-(2,2-difluoropropyl)-3-(3,3,3-trifluoropropyl)succinamide], the half-life at 0.5 μM is ≥ 67 min. As for `NC(=O)[C@@H](CCCC(F)(F)F)[C@@H](CCC(F)(F)F)C(=O)N[C@H]1N=C(c2ccccc2)c2ccccc2N(c2cccnc2)C1=O` [Example 4, (2R,3S)-N-((3S)-2-Oxo-5-phenyl-1-(3-pyridinyl)-2,3-dihydro-1H-1,4-benzodiazepin-3-yl)-3-(4,4,4-trifluorobutyl)-2-(3,3,3-trifluoropropyl)succinamide], the half-life at 0.5 μM was ≥ 67 min. On to `COc1ccc2c(c1)C(c1ccccc1)=N[C@H](NC(=O)[C@H](CCC(F)(F)F)[C@H](CCC(F)(F)F)C(N)=O)C(=O)N2CC(F)(F)F` [Example 7, (2R,3S)-N-((3S)-7-Methoxy-2-oxo-5-phenyl-1-(2,2,2-trifluoroethyl)-2,3-dihydro-1H-1,4-benzodiazepin-3-yl)-2,3-bis(3,3,3-trifluoropropyl)succinamide], for which the half-life at 0.5 μM is ≥ 67 min. For the molecule `NC(=O)[C@@H](CCC(F)(F)F)[C@@H](CCC(F)(F)F)C(=O)N[C@H]1N=C(c2ccccc2)c2ccccc2N(c2cccnc2)C1=O` [Example 5, (2R,3S)-N-((3S)-2-Oxo-5-phenyl-1-(3-pyridinyl)-2,3-dihydro-1H-1,4-benzodiazepin-3-yl)-2,3-bis(3,3,3-trifluoropropyl)succinamide], the half-life at 0.5 μM was ≥ 67 min. For `NC(=O)[C@@H](CCCC(F)(F)F)[C@@H](CCC(F)(F)F)C(=O)N[C@H]1N=C(c2ccccc2)c2ccccc2N(c2ccccn2)C1=O` [Example 1, (2R,3S)-N-((3S)-2-Oxo-5-phenyl-1-(2-pyridinyl)-2,3-dihydro-1H-1,4-benzodiazepin-3-yl)-3-(4,4,4-trifluorobutyl)-2-(3,3,3-trifluoropropyl)succinamide] the value was ≥ 67 min.
